Measured values: ChEMBL document CHEMBL1136248, “Further SAR studies on novel small molecule inhibitors of the hepatitis C (HCV) NS5B polymerase” (Bioorg Med Chem Lett, 2003)

Target: Genome polyprotein (Hepatitis C virus genotype 1a (isolate 1) (HCV), UniProt P26664)
Experiment: Inhibition of Hepatitis C RNA dependent RNA polymerase Nonstructural protein 5B activity.

Genome polyprotein, sequence (P26664 2421-3011 limits assumed): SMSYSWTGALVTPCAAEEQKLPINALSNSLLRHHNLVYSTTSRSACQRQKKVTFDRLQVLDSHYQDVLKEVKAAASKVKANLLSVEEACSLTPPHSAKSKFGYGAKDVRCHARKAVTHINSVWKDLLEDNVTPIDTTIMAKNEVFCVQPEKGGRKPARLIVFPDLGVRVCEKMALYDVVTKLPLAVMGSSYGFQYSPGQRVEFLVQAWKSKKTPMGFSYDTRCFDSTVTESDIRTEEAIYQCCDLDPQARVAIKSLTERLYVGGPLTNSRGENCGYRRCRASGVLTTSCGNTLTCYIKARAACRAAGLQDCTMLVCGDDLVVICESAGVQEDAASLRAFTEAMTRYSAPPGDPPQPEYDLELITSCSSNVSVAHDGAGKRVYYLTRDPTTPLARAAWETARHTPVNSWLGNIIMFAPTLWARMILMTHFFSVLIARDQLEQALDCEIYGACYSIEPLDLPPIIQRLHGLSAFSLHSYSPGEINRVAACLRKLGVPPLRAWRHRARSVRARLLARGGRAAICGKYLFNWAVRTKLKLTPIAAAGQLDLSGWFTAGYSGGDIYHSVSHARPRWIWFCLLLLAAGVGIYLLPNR

SMILES | IC50 [µM]
O=C(O)[C@H](Cc1ccccc1)N(Cc1cccc(Br)c1)S(=O)(=O)c1ccc(Cl)cc1Cl | 31
COc1cc(Cl)ccc1C(=O)N(Cc1cccc(Br)c1)[C@@H](Cc1ccccc1)C(=O)O | 11
O=C(O)[C@H](Cc1ccccc1)N(Cc1cccc(Br)c1)C(=O)c1c(Cl)cc(Cl)cc1Cl | 13
O=C(O)[C@H](Cc1ccccc1)N(Cc1cccc(Br)c1)C(=O)c1ccc(Cl)cc1Br | 5
O=C(O)[C@H](Cc1ccccc1)N(Cc1cccc(Br)c1)C(=O)c1ccccc1Cl | 31
O=C(O)[C@H](Cc1ccccc1)N(Cc1cccc(Br)c1)C(=O)c1cccc(Cl)c1 | 30
O=C(O)[C@H](Cc1ccccc1)N(Cc1cccc(Br)c1)C(=O)c1ccc(Cl)cc1I | 2.7
O=C(O)[C@H](Cc1ccccc1)N(Cc1cccc(Br)c1)C(=O)c1ccccc1 | > 50
O=C(O)[C@H](Cc1ccccc1)N(Cc1cccc(Br)c1)C(=O)Nc1ccc(Cl)cc1Cl | 31
O=C(O)[C@H](Cc1ccccc1)N(Cc1cccc(Br)c1)C(=O)c1ccc(Cl)cc1 | 10.6

The remaining molecules from weak to strong by IC50, led by results:

IC50 [µM] | SMILES
43 | O=C(O)[C@H](Cc1ccccc1)N(Cc1cccc(Br)c1)C(=O)c1ccc(F)cc1F
31 | O=C(O)[C@H](Cc1ccccc1)N(Cc1cccc(Br)c1)C(=O)c1ccc(Cl)nc1Cl
30 | O=C(O)[C@H](Cc1ccccc1)N(Cc1cccc(Br)c1)C(=O)c1ccc(Cl)c(Cl)c1
26 | O=C(O)[C@H](Cc1ccccc1)N(Cc1cccc(Br)c1)Cc1ccc(Cl)cc1Cl
15 | O=C(O)[C@H](Cc1ccccc1)N(Cc1cccc(Br)c1)c1ccc(Cl)cc1Cl
10.7 | COc1ccc(C(=O)N(Cc2cccc(Br)c2)[C@@H](Cc2ccccc2)C(=O)O)c(OC)c1
5.9 | Cc1ccc(C(=O)N(Cc2cccc(Br)c2)[C@@H](Cc2ccccc2)C(=O)O)c(C)c1
5.6 | CCc1cc(Cl)ccc1C(=O)N(Cc1cccc(Br)c1)[C@@H](Cc1ccccc1)C(=O)O
3.7 | Cc1cc(Cl)ccc1C(=O)N(Cc1cccc(Br)c1)[C@@H](Cc1ccccc1)C(=O)O
3.5 | O=C(O)[C@H](Cc1ccccc1)N(Cc1cccc(Br)c1)C(=O)c1ccc(Cl)cc1Cl
